Source: PubChem BioAssay (NCI)
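Step 1: Grow cells in 96-well plates. Step 2: Expose to compound for 48 hours at 5 concentrations. Step 3: Interpolate endpoints linearly; if unreached, use highest concentration. GI50 marks 50% less growth. Definition used: TGI = concentration required for complete inhibition of growth.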

Legend:
Assay in all cases: NCI tumour cell line growth inhibition, 48 h
[1] = tested on: LXFL 529 NSCLC
[2] = tested on: LOX IMVI melanoma
[3] = tested on: HL-60(TB) leukemia
[4] = tested on: HCT-116 colon
[5] = tested on: SW-620 colon
[6] = tested on: 786-0 renal
[7] = tested on: HT29 colon
[8] = tested on: SF-268 CNS
[9] = tested on: UO-31 renal
[10] = tested on: ACHN renal
[11] = tested on: SN12C renal
[12] = tested on: UACC-257 melanoma
[13] = tested on: NCI-H460 lung
[14] = tested on: NCI-H522 lung
[15] = tested on: HOP-18 NSCLC
[16] = tested on: RXF 393 renal
[17] = tested on: SK-MEL-28 melanoma
[18] = tested on: OVCAR-8 ovarian
[19] = tested on: OVCAR-4 ovarian
[20] = tested on: NCI-H23 lung
[21] = tested on: SF-295 CNS
[22] = tested on: A549 NSCLC
[23] = tested on: KM12 colon
[24] = tested on: M19-MEL melanoma
[25] = tested on: SNB-75 CNS
[26] = tested on: EKVX NSCLC
[27] = tested on: HCC-2998 colon
[28] = tested on: M14 melanoma
[29] = tested on: U251 CNS
[30] = tested on: RPMI-8226 leukemia
[31] = tested on: CAKI-1 renal
[32] = tested on: DLD-1 colon
[33] = tested on: SF-539 CNS
[34] = tested on: RXF-631 renal
[35] = tested on: TK-10 renal
[36] = tested on: IGROV1 ovarian
[37] = tested on: OVCAR-5 ovarian
[38] = tested on: UACC-62 melanoma
[39] = tested on: KM20L2 colon
[40] = tested on: SK-OV-3 ovarian
[41] = tested on: HCT-15 colon
[42] = tested on: XF 498 CNS
[43] = tested on: SNB-78 CNS
[44] = tested on: MOLT-4 leukemia
[45] = tested on: HOP-62 NSCLC
[46] = tested on: SR leukemia
[47] = tested on: HOP-92 NSCLC
[48] = tested on: OVCAR-3 ovarian
[49] = tested on: SK-MEL-5 melanoma
[50] = tested on: DMS 273 small cell lung
[51] = tested on: SNB-19 CNS
[52] = tested on: CCRF-CEM leukemia
[53] = tested on: A498 renal
[54] = tested on: K-562 leukemia
[55] = tested on: NCI-H226 lung
[56] = tested on: COLO 205 colon
[57] = tested on: DMS 114 small cell lung
[58] = tested on: SK-MEL-2 melanoma
[59] = tested on: MALME-3M melanoma
[60] = tested on: P388 leukemia

Work on `Cc1ccccc1C(=O)N1CCN(C(=O)c2ccccc2C)CC1` yielded a TGI [1] greater than 100 µM, a TGI [2] greater than 100 µM and a TGI [3] greater than 100 µM. The TGI [4] was greater than 100 µM, the TGI [5] was greater than 100 µM and the TGI [6] was greater than 100 µM. For the same compound, the TGI [7] was greater than 100 µM, the TGI [8] was greater than 100 µM and the TGI [9] was greater than 100 µM. It also gave a TGI [10] greater than 100 µM, a TGI [11] greater than 100 µM and a TGI [12] greater than 100 µM. For the same compound, the TGI [13] was greater than 100 µM, the TGI [14] was greater than 100 µM and the TGI [15] was greater than 100 µM. It also gave a TGI [16] greater than 100 µM, a TGI [17] greater than 100 µM and a TGI [18] greater than 100 µM. The TGI [19] was greater than 100 µM, the TGI [20] was greater than 100 µM and the TGI [21] was greater than 100 µM. It also gave a TGI [22] greater than 100 µM, a TGI [23] greater than 100 µM and a TGI [24] greater than 100 µM. It also gave a TGI [25] greater than 100 µM, a TGI [26] greater than 100 µM and a TGI [27] greater than 100 µM. It also gave a TGI [28] greater than 100 µM, a TGI [29] greater than 100 µM and a TGI [30] greater than 100 µM. The TGI [31] was greater than 100 µM, the TGI [32] was greater than 100 µM and the TGI [33] was greater than 100 µM. For the same compound, the TGI [34] was greater than 100 µM, the TGI [35] was greater than 100 µM and the TGI [36] was greater than 100 µM. For the same compound, the TGI [37] was greater than 100 µM, the TGI [38] was greater than 100 µM and the TGI [39] was greater than 100 µM. It also gave a TGI [40] greater than 100 µM, a TGI [41] greater than 100 µM and a TGI [42] greater than 100 µM. It also gave a TGI [43] greater than 100 µM, a TGI [44] greater than 100 µM and a TGI [45] greater than 100 µM. The TGI [46] was greater than 100 µM, the TGI [47] was greater than 100 µM and the TGI [48] was greater than 100 µM. The TGI [49] was greater than 100 µM, the TGI [50] was greater than 100 µM and the TGI [51] was greater than 100 µM. It also gave a TGI [52] greater than 100 µM, a TGI [53] greater than 100 µM and a TGI [54] greater than 100 µM.
In the case of `Nc1ncnc2c1ncn2CC(O)CO` (stereo unspecified), the TGI [1] is reported as greater than 100 µM, the TGI [2] is reported as greater than 100 µM and the TGI [3] is reported as greater than 100 µM. The TGI [55] was greater than 100 µM, the TGI [4] was greater than 100 µM and the TGI [5] was greater than 100 µM. For the same compound, the TGI [6] was greater than 100 µM, the TGI [7] was greater than 100 µM and the TGI [8] was greater than 100 µM. The TGI [9] was greater than 100 µM, the TGI [11] was greater than 100 µM and the TGI [12] was greater than 100 µM. The TGI [13] was greater than 100 µM, the TGI [14] was greater than 100 µM and the TGI [15] was greater than 100 µM. The TGI [56] was greater than 100 µM, the TGI [16] was greater than 100 µM and the TGI [17] was greater than 100 µM. The TGI [18] was greater than 100 µM, the TGI [19] was greater than 100 µM and the TGI [20] was greater than 100 µM. For the same compound, the TGI [21] was greater than 100 µM, the TGI [22] was greater than 100 µM and the TGI [23] was greater than 100 µM. For the same compound, the TGI [24] was greater than 100 µM, the TGI [25] was greater than 100 µM and the TGI [26] was greater than 100 µM. The TGI [27] was greater than 100 µM, the TGI [28] was greater than 100 µM and the TGI [30] was greater than 100 µM. It also gave a TGI [31] greater than 100 µM, a TGI [32] greater than 100 µM and a TGI [57] greater than 100 µM. For the same compound, the TGI [33] was greater than 100 µM, the TGI [34] was greater than 100 µM and the TGI [35] was greater than 100 µM. It also gave a TGI [36] greater than 100 µM, a TGI [38] greater than 100 µM and a TGI [40] greater than 100 µM. The TGI [41] was greater than 100 µM, the TGI [43] was greater than 100 µM and the TGI [44] was greater than 100 µM. It also gave a TGI [47] greater than 100 µM, a TGI [48] greater than 100 µM and a TGI [49] greater than 100 µM. It also gave a TGI [50] greater than 100 µM, a TGI [58] greater than 100 µM and a TGI [51] greater than 100 µM. For the same compound, the TGI [52] was greater than 100 µM, the TGI [53] was greater than 100 µM and the TGI [59] was greater than 100 µM. The TGI [54] was greater than 100 µM.
Compound `CCc1c2c(nc3ccc(OC(=O)N4CCC(N5CCCCC5)CC4)cc13)-c1cc3c(c(=O)n1C2)COC(=O)[C@]3(O)CC` has a GI50 [60] of 10.1 µM, a TGI [60] of 40.2 µM and a GI50 [39] of 17.2 µM. It also gave a TGI [39] of 66.3 µM, a GI50 [43] of 53.7 µM and a TGI [43] greater than 100 µM.
For `Cc1cn(C2CC(N(C)C)C(CO)O2)c(=O)[nH]c1=O` (stereo unspecified), the TGI [1] was greater than 100 µM, the TGI [3] was greater than 100 µM and the TGI [55] was greater than 100 µM. For the same compound, the TGI [4] was greater than 100 µM, the TGI [6] was greater than 100 µM and the TGI [8] was greater than 100 µM. The TGI [9] was greater than 100 µM, the TGI [10] was greater than 100 µM and the TGI [11] was greater than 100 µM. It also gave a TGI [14] greater than 100 µM, a TGI [56] greater than 100 µM and a TGI [17] greater than 100 µM. It also gave a TGI [19] greater than 100 µM, a TGI [20] greater than 100 µM and a TGI [24] greater than 100 µM. The TGI [25] was greater than 100 µM, the TGI [27] was greater than 100 µM and the TGI [28] was greater than 100 µM. The TGI [30] was greater than 100 µM, the TGI [31] was greater than 100 µM and the TGI [32] was greater than 100 µM. The TGI [57] was greater than 100 µM, the TGI [33] was greater than 100 µM and the TGI [34] was greater than 100 µM. For the same compound, the TGI [36] was greater than 100 µM, the TGI [38] was greater than 100 µM and the TGI [40] was greater than 100 µM. The TGI [42] was greater than 100 µM, the TGI [43] was greater than 100 µM and the TGI [44] was greater than 100 µM. The TGI [45] was greater than 100 µM, the TGI [46] was greater than 100 µM and the TGI [47] was greater than 100 µM. The TGI [50] was greater than 100 µM, the TGI [58] was greater than 100 µM and the TGI [52] was greater than 100 µM. For the same compound, the TGI [53] was greater than 100 µM, the TGI [59] was greater than 100 µM and the TGI [54] was greater than 100 µM.
`FC(F)(F)c1cc(C2SCc3nc4ccccc4n32)cc(C(F)(F)F)c1` (stereo unspecified) showed a TGI [1] greater than 100 µM, a TGI [3] greater than 100 µM and a TGI [55] greater than 100 µM. It also gave a TGI [6] greater than 100 µM, a TGI [7] greater than 100 µM and a TGI [8] greater than 100 µM. The TGI [9] was greater than 100 µM, the TGI [10] was greater than 100 µM and the TGI [11] was greater than 100 µM. It also gave a TGI [12] greater than 100 µM, a TGI [16] greater than 100 µM and a TGI [18] greater than 100 µM. The TGI [19] was greater than 100 µM, the TGI [21] was greater than 100 µM and the TGI [23] was greater than 100 µM. It also gave a TGI [31] greater than 100 µM, a TGI [33] greater than 100 µM and a TGI [34] greater than 100 µM. It also gave a TGI [35] greater than 100 µM, a TGI [36] greater than 100 µM and a TGI [37] greater than 100 µM. It also gave a TGI [38] greater than 100 µM, a TGI [39] greater than 100 µM and a TGI [40] greater than 100 µM. The TGI [42] was 35.6 µM, the TGI [43] was greater than 100 µM and the TGI [44] was greater than 100 µM. For the same compound, the TGI [45] was greater than 100 µM, the TGI [47] was greater than 100 µM and the TGI [50] was greater than 100 µM. It also gave a TGI [51] greater than 100 µM, a TGI [52] greater than 100 µM and a TGI [53] greater than 100 µM. For the same compound, the TGI [59] was greater than 100 µM and the TGI [54] was greater than 100 µM.
